Reference: patent publication US11420973B2, “Amide substituted indole compounds useful as TLR inhibitors” (BRISTOL-MYERS SQUIBB COMPANY, priority 2017, dated 2022)
Where two headings read alike, the source gives them in different places.

Columns and labels:
human TLR7 = human TLR7 (Homo sapiens (Human), UniProt Q9NYK1); assay: TLR7 inhibition reporter assay (HEK-Blue SEAP reporter, gardiquimod stimulation); format: cell-based; details: HEK-Blue cells overexpressing human TLR7, gardiquimod 7.5 μM
human TLR8 = human TLR8 (Homo sapiens (Human), UniProt Q9NR97); assay: TLR8 inhibition reporter assay (HEK-Blue SEAP reporter, R848 stimulation); details: read-out: TLR8 IC50, HEK-Blue cells overexpressing human TLR8, R848 15.9 μM, SEAP reporter;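 note: SEAP driven by IFN-β minimal promoter with NF-κB and AP-1 sites, 22 h incubation, compounds 0.05 nM–50 µM, inhibition scaled between agonist plus DMSO and reference inhibitor wells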
human TLR9 = human TLR9 (Homo sapiens (Human), UniProt Q9NR96); assay: TLR9 inhibition reporter assay (HEK-Blue SEAP reporter, ODN2006 stimulation); details: read-out: TLR9 IC50, HEK-Blue cells overexpressing human TLR9, ODN2006 5 nM, SEAP reporter;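 note: SEAP reporter under IFN-β minimal promoter with five NF-κB and AP-1 sites, 22 h incubation, compounds 0.05 nM–50 µM, inhibition relative to agonist plus DMSO versus known inhibitor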
Sequence of human TLR9 (Q9NR96 26-1032): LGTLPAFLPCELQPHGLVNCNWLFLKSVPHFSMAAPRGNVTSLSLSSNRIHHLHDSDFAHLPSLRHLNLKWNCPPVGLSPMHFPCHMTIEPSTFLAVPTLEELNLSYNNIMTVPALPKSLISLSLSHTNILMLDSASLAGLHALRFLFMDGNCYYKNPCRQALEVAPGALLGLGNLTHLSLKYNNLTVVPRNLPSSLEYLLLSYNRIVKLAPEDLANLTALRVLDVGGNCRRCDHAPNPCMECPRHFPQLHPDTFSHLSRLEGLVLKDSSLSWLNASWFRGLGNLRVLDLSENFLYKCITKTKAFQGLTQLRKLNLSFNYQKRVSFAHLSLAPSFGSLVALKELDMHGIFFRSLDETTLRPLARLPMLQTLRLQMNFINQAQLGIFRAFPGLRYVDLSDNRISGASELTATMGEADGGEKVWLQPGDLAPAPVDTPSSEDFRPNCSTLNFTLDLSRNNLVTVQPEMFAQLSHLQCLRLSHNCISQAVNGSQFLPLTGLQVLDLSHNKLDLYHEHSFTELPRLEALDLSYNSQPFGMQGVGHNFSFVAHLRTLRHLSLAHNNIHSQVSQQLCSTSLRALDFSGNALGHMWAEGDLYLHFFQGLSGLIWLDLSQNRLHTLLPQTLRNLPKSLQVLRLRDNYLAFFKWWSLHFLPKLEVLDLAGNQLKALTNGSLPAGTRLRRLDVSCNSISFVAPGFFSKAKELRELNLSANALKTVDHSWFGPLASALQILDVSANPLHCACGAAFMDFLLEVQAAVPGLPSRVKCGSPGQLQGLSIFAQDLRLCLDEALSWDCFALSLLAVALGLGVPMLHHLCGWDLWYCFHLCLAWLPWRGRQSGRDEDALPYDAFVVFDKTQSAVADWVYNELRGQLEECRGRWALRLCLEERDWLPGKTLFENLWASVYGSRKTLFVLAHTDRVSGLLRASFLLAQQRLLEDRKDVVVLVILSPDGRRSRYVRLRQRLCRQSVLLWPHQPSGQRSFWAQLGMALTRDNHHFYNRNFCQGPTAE

Sequence of human TLR8 (Q9NR97 27-1041): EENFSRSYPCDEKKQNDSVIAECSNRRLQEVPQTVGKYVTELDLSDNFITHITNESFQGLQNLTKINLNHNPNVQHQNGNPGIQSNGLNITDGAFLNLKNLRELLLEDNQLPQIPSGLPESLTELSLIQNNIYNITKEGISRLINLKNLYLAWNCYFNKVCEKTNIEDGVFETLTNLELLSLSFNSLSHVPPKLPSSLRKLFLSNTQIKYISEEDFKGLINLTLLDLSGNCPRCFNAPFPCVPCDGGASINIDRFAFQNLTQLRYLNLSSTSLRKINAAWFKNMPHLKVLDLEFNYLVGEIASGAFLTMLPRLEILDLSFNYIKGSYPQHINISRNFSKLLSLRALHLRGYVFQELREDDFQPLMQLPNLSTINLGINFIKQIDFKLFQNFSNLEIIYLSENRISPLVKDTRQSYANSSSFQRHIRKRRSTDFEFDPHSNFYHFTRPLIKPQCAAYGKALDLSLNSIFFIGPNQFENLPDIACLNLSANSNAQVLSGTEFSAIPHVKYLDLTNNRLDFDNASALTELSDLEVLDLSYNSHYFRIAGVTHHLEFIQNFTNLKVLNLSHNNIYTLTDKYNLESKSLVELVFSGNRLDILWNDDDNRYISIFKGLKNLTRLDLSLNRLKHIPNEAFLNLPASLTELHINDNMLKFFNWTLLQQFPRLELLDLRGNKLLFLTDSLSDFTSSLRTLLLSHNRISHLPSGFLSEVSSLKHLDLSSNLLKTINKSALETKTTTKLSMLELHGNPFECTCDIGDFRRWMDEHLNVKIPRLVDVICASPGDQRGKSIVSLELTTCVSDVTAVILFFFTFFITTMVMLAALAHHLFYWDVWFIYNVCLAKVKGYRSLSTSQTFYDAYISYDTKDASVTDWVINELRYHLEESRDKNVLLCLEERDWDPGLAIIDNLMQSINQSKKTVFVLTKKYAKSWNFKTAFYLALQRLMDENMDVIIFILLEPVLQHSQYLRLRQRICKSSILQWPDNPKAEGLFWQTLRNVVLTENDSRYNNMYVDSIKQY
Sequence of human TLR7 (Q9NYK1 27-1049): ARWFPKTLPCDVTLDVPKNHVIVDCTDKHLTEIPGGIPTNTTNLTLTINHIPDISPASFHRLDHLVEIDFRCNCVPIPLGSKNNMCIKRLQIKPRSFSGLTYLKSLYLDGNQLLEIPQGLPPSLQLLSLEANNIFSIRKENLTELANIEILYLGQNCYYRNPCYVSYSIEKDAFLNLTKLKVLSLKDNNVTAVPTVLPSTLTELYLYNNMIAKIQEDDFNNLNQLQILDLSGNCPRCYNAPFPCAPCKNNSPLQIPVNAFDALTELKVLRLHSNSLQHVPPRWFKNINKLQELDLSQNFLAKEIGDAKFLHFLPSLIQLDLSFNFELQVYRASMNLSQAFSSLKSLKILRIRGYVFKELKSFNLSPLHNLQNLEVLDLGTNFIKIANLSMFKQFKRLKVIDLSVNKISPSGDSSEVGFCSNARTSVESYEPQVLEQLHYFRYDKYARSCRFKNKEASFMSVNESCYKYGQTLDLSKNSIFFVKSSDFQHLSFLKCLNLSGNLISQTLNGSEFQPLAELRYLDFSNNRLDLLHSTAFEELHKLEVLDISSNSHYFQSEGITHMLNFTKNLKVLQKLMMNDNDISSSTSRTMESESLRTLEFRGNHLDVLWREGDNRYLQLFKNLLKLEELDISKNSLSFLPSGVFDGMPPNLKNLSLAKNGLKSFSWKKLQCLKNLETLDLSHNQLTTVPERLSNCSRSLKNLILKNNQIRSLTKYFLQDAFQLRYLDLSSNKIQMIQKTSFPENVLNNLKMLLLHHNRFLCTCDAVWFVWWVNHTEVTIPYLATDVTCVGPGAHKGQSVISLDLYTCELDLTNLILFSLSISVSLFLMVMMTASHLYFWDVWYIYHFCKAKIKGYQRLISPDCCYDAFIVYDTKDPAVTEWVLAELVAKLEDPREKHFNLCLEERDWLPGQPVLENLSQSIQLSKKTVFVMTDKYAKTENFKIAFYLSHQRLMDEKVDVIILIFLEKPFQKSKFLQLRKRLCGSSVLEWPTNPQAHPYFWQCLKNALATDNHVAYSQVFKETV

Row | IC50 (human TLR7) [nM] | IC50 (human TLR8) [nM] | IC50 (human TLR9) [nM] | IC50 (human TLR7; listed as 700) [nM] | IC50 (human TLR8; listed as 700) [nM] | IC50 (human TLR9; listed as 700) [nM] | SMILES
1 | 16 | 7.1 | 899 |  |  |  | Cc1cc(-c2[nH]c3ccc(C(C)(C)C(=O)N[C@@H]4CCCC[C@H]4N)cc3c2C(C)C)ccn1 [Example 169, N—((R,2R)-2-aminocyclohexyl)-2-(3-isopropyl-2-(2-methylpyridin-4-yl)-1H-indol-5-yl)-2-methylpropanamide]
2 | 3.8 | 2.6 | 1400 |  |  |  | COc1cc(-c2[nH]c3ccc(C(=O)N4CCCN(C)CC4)cc3c2C(C)C)cn2ncnc12 [Example 128, (3-isopropyl-2-(8-methoxy-[1,2,4]triazolo[1,5-a]pyridin-6-yl)-1H-indol-5-yl)(4-methyl-1,4-diazepan-1-yl)methanone]
3 | 9.2 | 2.1 | 670 |  |  |  | Cc1cc(-c2[nH]c3ccc(C(=O)NC4CCN(C(C)C)CC4)cc3c2C(C)C)cc(C)n1 [Example 91, 2-(2,6-dimethylpyridin-4-yl)-3-isopropyl-N-(1-isopropylpiperidin-4-yl)-1H-indole-5-carboxamide]
4 | 274 | 175 | 1220 |  |  |  | CNCCN1CC2CN(C(=O)c3ccc4[nH]c(-c5ccc(OC)c(OC)c5)c(C(C)C)c4c3)CC2C1 (stereo not drawn) [Example 12, (2-(3,4-dimethoxyphenyl)-3-isopropyl-1H-indol-5-yl)(5-(2-(methylamino)ethyl)hexahydropyrrolo[3,4-c]pyrrol-2(1H)-yl)methanone]
5 | 4050 | 165 | 22700 |  |  |  | CNC(=O)CN1CC2CN(C(=O)c3ccc4[nH]c(-c5ccnc(C)c5)c(C(C)C)c4c3)CC2C1 (stereo not drawn) [Example 118, 2-(5-(3-isopropyl-2-(2-methylpyridin-4-yl)-1H-indole-5-carbonyl)hexahydropyrrolo[3,4-c]pyrrol-2(1H)-yl)-N-methylacetamide]
6 | 74 | 119 | 939 |  |  |  | Cc1cc(-c2[nH]c3ccc(C(C)C(=O)N4CCC[C@H](N)C4)cc3c2C(C)C)ccn1 (stereo partly drawn) [Example 204, 1-((S)-3-aminopiperidin-1-yl)-2-(3-isopropyl-2-(2-methylpyridin-4-yl)-1H-indol-5-yl)propan-1-one]
7 | 657 | 979 | > 50000 |  |  |  | Cc1cc(-c2[nH]c3ccc(C(C)C(=O)NCC(C)(C)O)cc3c2C(C)C)ccn1 (stereo not drawn) [Example 131, N-(2-hydroxy-2-methylpropyl)-2-(3-isopropyl-2-(2-methylpyridin-4-yl)-1H-indol-5-yl)propanamide]
8 | 167 | 36 | 1010 |  |  |  | Cc1cc(-c2[nH]c3ccc(C(C)(C)C(=O)N4CCNCC4)cc3c2C(C)C)ccn1 [Example 175, 2-(3-isopropyl-2-(2-methylpyridin-4-yl)-1H-indol-5-yl)-2-methyl-1-(piperazin-1-yl)propan-1-one]
9 | 164 | 1030 | 5090 |  |  |  | Cc1cc(-c2[nH]c3ccc(C(C)(C)C(=O)NC[C@H]4CCNC4)cc3c2C(C)C)ccn1 [Example 160, (S)-2-(3-isopropyl-2-(2-methylpyridin-4-yl)-1H-indol-5-yl)-2-methyl-N-(pyrrolidin-3-ylmethyl)propanamide]
10 | 54 | 192 | 27100 |  |  |  | Cc1cc(-c2[nH]c3ccc(C(=O)N(C)Cc4cccc(N)c4)cc3c2C(C)C)cc(C)n1 [Example 103, N-(3-aminobenzyl)-2-(2,6-dimethylpyridin-4-yl)-3-isopropyl-N-methyl-1H-indole-5-carboxamide]
11 | 277 | 341 | 2460 |  |  |  | Cc1cc(-c2[nH]c3ccc(C(C)C(=O)N4CCCC(CN)C4)cc3c2C(C)C)ccn1 (stereo not drawn) [Example 205, 1-(3-(aminomethyl)piperidin-1-yl)-2-(3-isopropyl-2-(2-methylpyridin-4-yl)-1H-indol-5-yl)propan-1-one]
12 | 776 | 160 | 386 |  |  |  | CCc1c(-c2ccnc(C)c2)[nH]c2ccc(C(=O)N3CC4CNCC4C3)cc12 (stereo not drawn) [Example 85, (3-ethyl-2-(2-methylpyridin-4-yl)-1H-indol-5-yl)(hexahydropyrrolo[3,4-c]pyrrol-2(1H)-yl)methanone]
13 | 1790 | 581 | 31400 |  |  |  | CCc1c(-c2ccc(OC)c(OC)c2)[nH]c2ccc(C(=O)N(C)CCc3ccccn3)cc12 [Example 24, 2-(3,4-dimethoxyphenyl)-3-ethyl-N-methyl-N-(2-(pyridin-2-yl)ethyl)-1H-indole-5-carboxamide]
14 | 1180 | 218 | > 50000 |  |  |  | CCc1c(-c2ccc(OC)c(OC)c2)[nH]c2ccc(C(=O)N3CCC(C(N)=O)CC3)cc12 [Example 34, 1-(2-(3,4-dimethoxyphenyl)-3-ethyl-1H-indole-5-carbonyl)piperidine-4-carboxamide]
15 | 79 | 500 | 3030 |  |  |  | Cc1cc(-c2[nH]c3ccc(C(C)(C)C(=O)N4CCC(CN)CC4)cc3c2C(C)C)ccn1 [Example 158, 1-(4-(aminomethyl)piperidin-1-yl)-2-(3-isopropyl-2-(2-methylpyridin-4-yl)-1H-indol-5-yl)-2-methylpropan-1-one]
16 | 2240 | 1040 | > 50000 |  |  |  | CCc1c(-c2ccc(OC)c(OC)c2)[nH]c2ccc(C(=O)NCc3csc(-c4ccccc4)n3)cc12 [Example 45, 2-(3,4-dimethoxyphenyl)-3-ethyl-N-((2-phenylthiazol-4-yl)methyl)-1H-indole-5-carboxamide]
17 |  |  |  | 12 | 69 | 690 | Cc1cc(-c2[nH]c3ccc(C(C)C(=O)N4CCCC5(CCCCC5N)C4)cc3c2C(C)C)ccn1 (stereo not drawn) [Example 200, 1-(7-amino-2-azaspiro[5.5]undecan-2-yl)-2-(3-isopropyl-2-(2-methylpyridin-4-yl)-1H-indol-5-yl)propan-1-one]
18 | 6.3 | 28 | 997 |  |  |  | Cc1cc(-c2[nH]c3ccc(C(C)(C)C(=O)N4CCCCC4CN)cc3c2C(C)C)ccn1 (stereo not drawn) [Example 157, 1-(2-(aminomethyl)piperidin-1-yl)-2-(3-isopropyl-2-(2-methylpyridin-4-yl)-1H-indol-5-yl)-2-methylpropan-1-one]
19 | 131 | 159 | 1060 |  |  |  | Cc1cc(-c2[nH]c3ccc(C(C)C(=O)N[C@@H]4CCCC[C@H]4N)cc3c2C(C)C)ccn1 (stereo partly drawn) [Example 216, N-((1R,2R)-2-aminocyclohexyl)-2-(3-isopropyl-2-(2-methylpyridin-4-yl)-1H-indol-5-yl)propanamide]
20 | 72 | 175 | 7090 |  |  |  | Cc1cc(-c2[nH]c3ccc(C(C)(C)C(=O)N4CCC(CN)C4)cc3c2C(C)C)ccn1 (stereo not drawn) [Example 151, 1-(3-(aminomethyl)pyrrolidin-1-yl)-2-(3-isopropyl-2-(2-methylpyridin-4-yl)-1H-indol-5-yl)-2-methylpropan-1-one]
21 | 296 | 365 | 746 |  |  |  | Cc1cc(-c2[nH]c3ccc(C(C)C(=O)N4CCC(N)CC4)cc3c2C(C)C)ccn1 (stereo not drawn) [Example 203, 1-(4-aminopiperidin-1-yl)-2-(3-isopropyl-2-(2-methylpyridin-4-yl)-1H-indol-5-yl)propan-1-one]
22 | 32 | 3.2 | 2470 |  |  |  | Cc1cc(-c2[nH]c3ccc(C(=O)N4CCCN(C)CC4)cc3c2C(C)C)cc(C)n1 [Example 92, (2-(2,6-dimethylpyridin-4-yl)-3-isopropyl-1H-indol-5-yl)(4-methyl-1,4-diazepan-1-yl)methanone]
23 | 25 | 154 | 1140 |  |  |  | Cc1cc(-c2[nH]c3ccc(C(C)(C)C(=O)NC4CCN(C(C)C)CC4)cc3c2C(C)C)ccn1 [Example 139, 2-(3-isopropyl-2-(2-methylpyridin-4-yl)-1H-indol-5-yl)-N-(1-isopropylpiperidin-4-yl)-2-methylpropanamide]
24 | 128 | 36 | 1120 |  |  |  | Cc1cc(-c2[nH]c3ccc(C(=O)N4CCCN(C)CC4)cc3c2CC(F)F)cc(C)n1 [Example 124, (3-(2,2-difluoroethyl)-2-(2,6-dimethylpyridin-4-yl)-1H-indol-5-yl)(4-methyl-1,4-diazepan-1-yl)methanone]
25 | 91 | 139 | 533 |  |  |  | Cc1cc(-c2[nH]c3ccc(C(C)(C)C(=O)N4CCCC5(CCNC5)C4)cc3c2C(C)C)ccn1 (stereo not drawn) [Example 184, 2-(3-isopropyl-2-(2-methylpyridin-4-yl)-1H-indol-5-yl)-2-methyl-1-(2,7-diazaspiro[4.5]decan-7-yl)propan-1-one]
26 | 362 | 43 | 885 |  |  |  | CCc1c(-c2ccc(OC)c(OC)c2)[nH]c2ccc(C(=O)N(C)Cc3csc(C4CCNCC4)n3)cc12 [Example 23, 2-(3,4-dimethoxyphenyl)-3-ethyl-N-methyl-N-((2-(piperidin-4-yl)thiazol-4-yl)methyl)-1H-indole-5-carboxamide]

Row | SMILES | IC50 (human TLR7) [nM] | IC50 (human TLR8) [nM] | IC50 (human TLR9) [nM] | IC50 (human TLR7; listed as 700) [nM] | IC50 (human TLR8; listed as 700) [nM] | IC50 (human TLR9; listed as 700) [nM]
27 | Cc1cc(-c2[nH]c3ccc(C(C)(C)C(=O)NC4CN5CCC4CC5)cc3c2C(C)C)ccn1 (stereo not drawn) [Example 142, 2-(3-isopropyl-2-(2-methylpyridin-4-yl)-1H-indol-5-yl)-2-methyl-N-(quinuclidin-3-yl)propanamide] | 16 | 120 | 790 |  |  | 
28 | Cc1cc(-c2[nH]c3ccc(C(C)(C)C(=O)N(C)C4CN5CCC4CC5)cc3c2C(C)C)ccn1 (stereo not drawn) [Example 162, 2-(3-isopropyl-2-(2-methylpyridin-4-yl)-1H-indol-5-yl)-N,2-dimethyl-N-(quinuclidin-3-yl)propanamide] | 24 | 135 | 3520 |  |  | 
